Measured values taken from the C3SDB collision cross section collection.

Details: [M+H]+; instrument: TW; Major Mix IMS/Tof Calibration Kit (Waters)

Row | SMILES | collision cross section (N2) [Å²]
1 | COCCOC(=O)C1=C(C)NC(C)=C(C(=O)OC(C)C)C1c1cccc([N+](=O)[O-])c1 (configuration not stated) [Nimodipine] | 197.8
2 | CC(C)NC(=N)NC(=N)Nc1ccc(Cl)cc1 [Proguanil] | 161.3
3 | C=C[C@H]1C[N@@]2CC[C@H]1C[C@H]2[C@H](O)c1ccnc2ccc(OC)cc12 [Quinine] | 177.4
4 | Clc1ccc2c(c1)CCc1cccnc1C2=C1CCNCC1 [Desloratadine] | 175.5
5 | CC(C)=CCN1CCC2(C)c3cc(O)ccc3CC1C2C (configuration not stated) [Pentazocine] | 173.5
6 | CCOC(=O)C1=C(COCCN)NC(C)=C(C(=O)OC)C1c1ccccc1Cl (configuration not stated) [Amlodipine] | 188
7 | N=C(N)Nc1nc(CSCCC(=N)NS(N)(=O)=O)cs1 [Famotidine] | 165.9
8 | Cc1[nH]c(=O)c(C#N)cc1-c1ccncc1 [Milrinone] | 150.4
9 | CNCCC[C@@]1(c2ccc(F)cc2)OCc2cc(C#N)ccc21 [Citalopram-M N-desmethyl] | 178.7
10 | Cc1cc(C(C)(C)C)cc(C)c1CC1=NCCN1 [Xylometazoline] | 170.4
11 | CN1C(=O)C(O)N=C(c2ccccc2Cl)c2cc(Cl)ccc21 (configuration not stated) [Lormetazepam] | 169.5
12 | CC(=O)O[C@H]1C=C[C@H]2[C@H]3Cc4ccc(O)c5c4[C@@]2(CCN3C)[C@H]1O5 [Heroin-M 6-MAM] | 175.1
13 | CCC(c1ccccc1)c1c(O)c2ccccc2oc1=O (configuration not stated) [Phenprocoumon] | 160
14 | CN1CCN2c3ncccc3Cc3ccccc3C2C1 (configuration not stated) [Mirtazapine] | 161
15 | O=C(O)c1cc(/N=N/c2ccc(S(=O)(=O)Nc3ccccn3)cc2)ccc1O [Sulfasalazine] | 199.7
16 | CN1CCC[C@@H]1Cc1c[nH]c2ccc(CCS(=O)(=O)c3ccccc3)cc12 [Eletriptan] | 186.1
17 | CCN(CC)CCOCCOC(=O)C1(c2ccccc2)CCCC1 [Pentoxyverine] | 175.5
18 | CCN(CC)CCOC(=O)c1ccc(N)cc1 [Procaine] | 154.6
19 | Clc1cccc(Cl)c1NC1=NCCN1 [Clonidine] | 144
20 | CCCCn1cc(C(=O)c2cccc3ccccc23)c2ccccc21 [JWH-073] | 182.5
21 | CCC(NC)C(=O)c1ccc2c(c1)OCO2 (configuration not stated) [Butylone] | 151
22 | CC(C)(C)c1ccc(C(O)CCCN2CCC(C(O)(c3ccccc3)c3ccccc3)CC2)cc1 (configuration not stated) [Terfenadine] | 229.8

Row | SMILES | collision cross section (N2) [Å²]
23 | O=C1CN=C(c2ccccc2)c2cc(Cl)ccc2N1CC(F)(F)F [Halazepam] | 170.9
24 | CC(=O)OC1CC[C@H]2[C@@H]3CC[C@H]4CC(=O)C=C(C)[C@]4(C)[C@H]3CC[C@]12C (some centres not stated) [Metenolone acetate] | 187.6
25 | CN1c2ccccc2C(NCCCCCCC(=O)O)c2ccc(Cl)cc2S1(=O)=O (configuration not stated) [Tianeptine] | 197
26 | CCNC1(c2cccc(OC)c2)CCCCC1=O (configuration not stated) [Methoxetamine] | 159.6
27 | C(=C\c1ccccc1)/CN1CCN(C(c2ccccc2)c2ccccc2)CC1 [Cinnarizine] | 206.2
28 | Cc1cccc(C)c1NC1=NCCCS1 [Xylazine] | 147.9
29 | COc1ccc2c3c1O[C@H]1[C@@H](O)CC[C@H]4[C@@H](C2)N(C)CC[C@@]341 [Dihydrocodeine] | 168.6
30 | FC(F)(F)c1cccc(N2CCNCC2)c1 [m-Trifluorophenylpiperazine (TFMPP)] | 151.1
31 | COc1ccc2[nH]cc(CCN(C)C)c2c1 [5-MeO-DMT] | 150.3
32 | CN(C)CCC=C1c2ccccc2COc2ccccc21 [Doxepin] | 164.3
33 | CN/C(=C\[N+](=O)[O-])NCCSCc1csc(CN(C)C)n1 [Nizatidine] | 168.4
34 | Cc1cccc(Cc2cnc[nH]2)c1C [Detomidine] | 146.8
35 | Fc1ccc([C@@H]2CCNC[C@H]2COc2ccc3c(c2)OCO3)cc1 [Paroxetine] | 183.2
36 | CC(=O)Nc1cccc(O)c1 [Metacetamol] | 129.8
37 | NCC(CC(=O)O)c1ccc(Cl)cc1 (configuration not stated) [Baclofen] | 149.2
38 | CCNC(C)Cc1ccc2c(c1)OCO2 (configuration not stated) [MDEA] | 147.5
39 | CCN(CC)CCNC(=O)c1cc(Cl)c(N)cc1OC [Metoclopramide] | 173.2
40 | CN(C)C(=O)C(CCN1CCC(O)(c2ccc(Cl)cc2)CC1)(c1ccccc1)c1ccccc1 [Loperamide] | 222.7
41 | COC(=O)[C@@H]1[C@H]2C[C@H]3c4[nH]c5ccccc5c4CCN3C[C@@H]2CC[C@@H]1O [Yohimbine] | 186.5
42 | CCN1CCCC1CNC(=O)c1cc(S(N)(=O)=O)ccc1OC (configuration not stated) [Sulpiride] | 184.3
43 | COCCCC/C(=N\OCCN)c1ccc(C(F)(F)F)cc1 [Fluvoxamine] | 177
44 | C[C@]12CCC(=O)C=C1CC[C@@H]1[C@@H]2[C@@H](O)C[C@@]2(C)[C@H]1CC[C@]2(O)C(=O)CO [Hydrocortisone] | 186.6

Row | SMILES | collision cross section (N2) [Å²]
45 | COc1ccc(Cc2nccc3cc(OC)c(OC)cc23)cc1OC [Papaverine] | 185.3
46 | CNCCCC1c2ccccc2C=Cc2ccccc21 [Protriptyline] | 162.8
47 | CCN(CC)CCc1c[nH]c2ccccc12 ["NN-Diethyltryptamine"] | 148.6
48 | CN(C)CCC=C1c2ccccc2CCc2ccccc21 [Amitriptyline] | 167.2
49 | CC1NCCOC1c1ccccc1 (configuration not stated) [Phenmetrazine] | 138.9
50 | CCC(Cc1ccc2c(c1)OCO2)NC (configuration not stated) [MBDB] | 148.4
51 | CN1CCN(CCCN2c3ccccc3Sc3ccc(C(F)(F)F)cc32)CC1 [Trifluoperazine] | 188.1
52 | CC(CCc1ccc(O)cc1)NCCc1ccc(O)c(O)c1 (configuration not stated) [Dobutamine] | 168.2
53 | Clc1ccc(C(c2ccccc2)N2CCNCC2)cc1 (configuration not stated) [Cetirizine-M N-desalkyl] | 168.4
54 | C=CCc1ccccc1OCC(O)CNC(C)C (configuration not stated) [Alprenolol] | 159.5
55 | NC(=O)N1c2ccccc2CC(=O)c2ccccc21 [Oxcarbazepine] | 153.8
56 | CCCCNc1ccc(C(=O)OCCN(C)C)cc1 [Tetracaine] | 173.1
57 | O=c1[nH]c2ccccc2n1C1CCN(CCCC(c2ccc(F)cc2)c2ccc(F)cc2)CC1 [Pimozide] | 214.4
58 | Cc1cc2c(s1)Nc1ccccc1N=C2N1CCN(C)CC1 [Olanzapine] | 175.5
59 | OCc1nnc2n1-c1ccc(Cl)cc1C(c1ccccc1)=NC2 [Alprazolam-M alpha-Hydroxy] | 173.3
60 | c1ccc([C@H]2CN3CCSC3=N2)cc1 [Levamisole] | 144.6
61 | CN(C)CCc1c[nH]c2cccc(O)c12 [Psilocin] | 144.8
62 | C[C@@H](Cc1ccccc1)N(C)Cc1ccccc1 [Benzphetamine] | 154.8
63 | CN1CCN2c3ccccc3Cc3ccccc3C2C1 (configuration not stated) [Mianserin] | 164.5
64 | Oc1ccc2c3c1OC1C(O)C=CC4C(C2)NCCC341 (configuration not stated) [Morphine-M Nor] | 161.5
65 | C#CCN(C)[C@H](C)Cc1ccccc1 [Selegiline] | 142.1

Details: [M+2Na-H]+; instrument: DT; stepped-field

Row | SMILES | collision cross section (N2) [Å²]
66 | CC/C=C\C/C=C\C/C=C\C/C=C\C/C=C\CCCC(=O)OC[C@H](COP(=O)(O)OC[C@H](N)C(=O)O)OC(=O)CCCCCCCCCCCCCCCCCCCC [PS(41:05)] | 298.43
67 | CCCCCCCC/C=C\C/C=C\CCCCC(=O)O[C@H](COC(=O)CCCCCCC/C=C\CCCCCCCC)COP(=O)([O-])OCC[N+](C)(C)C [PC(36:03)] | 288.51
68 | CC/C=C\C/C=C\C/C=C\CCCCCCCC(=O)O[C@H](COC(=O)CCCCCCCCCCCCCCC)COP(=O)(O)OCCN [PE(34:03)] | 271.16
69 | CCCCC/C=C\C/C=C\CCCCCCCCCC(=O)O[C@H](COC(=O)CCCCCCC/C=C\CCCCCC)COP(=O)(O)O [PA(36:03)] | 271.74

Same assay, conditions: [M+Cl]-; instrument: DT; stepped-field

Row | SMILES | collision cross section (N2) [Å²]
70 | CCCCCCCC/C=C\C/C=C\CCCCC(=O)O[C@H](COC(=O)CCCCCCC/C=C\CCCCCCCC)COP(=O)([O-])OCC[N+](C)(C)C [PC(36:03)] | 293.42
71 | CCCCCCCCCCCCC=CC[C@@H](O)[C@H](CO[C@@H]1O[C@H](CO)[C@@H](O)C(O)C1O)NC(=O)CC=CCCCCCCCCCCCCCCCCCCCC (some centres not stated) [GlcCer(42:02)] | 298.77
72 | CCCCC/C=C\C/C=C\CCCCCCCCCC(=O)O[C@H](COC(=O)CCCCCCCCCCCCCCCCC)COP(=O)([O-])OCC[N+](C)(C)C [PC(38:02)] | 300.55

Same assay, conditions: [M+H-H2O]+; instrument: DT; stepped-field

Row | SMILES | collision cross section (N2) [Å²]
73 | CCCCCCCCCCCCC=CC[C@@H](O)[C@H](CO[C@@H]1O[C@H](CO)[C@@H](O)C(O)C1O)NC(=O)CC=CCCCCCCCCCCCCCCCCCCCC (some centres not stated) [GlcCer(42:02)] | 296.4

Same assay, conditions: [M+HCOO]-; instrument: DT; stepped-field

Row | SMILES | collision cross section (N2) [Å²]
74 | CCCCCCCC/C=C\C/C=C\CCCCC(=O)O[C@H](COC(=O)CCCCCCC/C=C\CCCCCCCC)COP(=O)([O-])OCC[N+](C)(C)C [PC(36:03)] | 293.56
75 | CCCCCCCCCCCCC=CC[C@@H](O)[C@H](CO[C@@H]1O[C@H](CO)[C@@H](O)C(O)C1O)NC(=O)CC=CCCCCCCCCCCCCCCCCCCCC (some centres not stated) [GlcCer(42:02)] | 301.95

Same assay, conditions: [M+H]+; instrument: DT; stepped-field

Row | SMILES | collision cross section (N2) [Å²]
76 | CC/C=C\C/C=C\C/C=C\CCCCCCCC(=O)O[C@H](COC(=O)CCCCCCCCCCCCCCC)COP(=O)(O)OCCN [PE(34:03)] | 265.93
77 | CCCCCCCCCCCCC=CC[C@@H](O)[C@H](CO[C@@H]1O[C@H](CO)[C@@H](O)C(O)C1O)NC(=O)CC=CCCCCCCCCCCCCCCCCCCCC (some centres not stated) [GlcCer(42:02)] | 299.26

Same assay, conditions: [M+Na]+; instrument: DT; stepped-field

Row | SMILES | collision cross section (N2) [Å²]
78 | CCCCCCCC/C=C\C/C=C\CCCCC(=O)O[C@H](COC(=O)CCCCCCC/C=C\CCCCCCCC)COP(=O)([O-])OCC[N+](C)(C)C [PC(36:03)] | 287.02
79 | CC/C=C\C/C=C\C/C=C\CCCCCCCC(=O)O[C@H](COC(=O)CCCCCCCCCCCCCCC)COP(=O)(O)OCCN [PE(34:03)] | 271.73
80 | CCCCCCCCCCCCC=CC[C@@H](O)[C@H](CO[C@@H]1O[C@H](CO)[C@@H](O)C(O)C1O)NC(=O)CC=CCCCCCCCCCCCCCCCCCCCC (some centres not stated) [GlcCer(42:02)] | 299.53
81 | CCCCC/C=C\C/C=C\CCCCCCCCCC(=O)O[C@H](COC(=O)CCCCCCC/C=C\CCCCCC)COP(=O)(O)O [PA(36:03)] | 270.97

Same assay, conditions: [M-H]-; instrument: DT; stepped-field

Row | SMILES | collision cross section (N2) [Å²]
82 | CC/C=C\C/C=C\C/C=C\CCCCCCCC(=O)O[C@H](COC(=O)CCCCCCCCCCCCCCC)COP(=O)(O)OCCN [PE(34:03)] | 263.76
